IC50 and viability, T/C data for five molecules are collected here from PubChem BioAssay AID1918947 (Molecular Pharmacology Branch, DTP, NCI, 2023).

Several values for one entry are separate records, joined by “and”; a condition that tells them apart may be missing. Equal entries are not always repeated.

For orientation: IC50 means the midpoint of a concentration-inhibition curve. The term viability, T/C denotes the result in the treated group divided by that in the control group, in per cent.

In this experiment the test system is A498 complex spheroid viability. In words: Anticancer human tumor A498 cell line growth inhibition.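 On all read-outs here: spheroids exposed to agents for seven days before readout.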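 On viability, T/C: 100% = DMSO vehicle-treated spheroids.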 Conditions: for viability, T/C: stronger effect = lower value. The procedure, abridged: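 Multicellular complex spheroids of tumor cells with human endothelial cells (HUVEC) and mesenchymal stem cells; the LSD1 inhibitor iadademstat was combined with standard-of-care or investigational agents. Top concentration at or near clinical Cmax, half-log dilutions; final DMSO ≤0.25%.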

Setting [1] is: curve of first compound, second compound 0.1 µM.
The mark [2] stands for this setting: curve of first compound, second compound 0.316 µM.
Where [3] appears, read: curve of first compound, second compound 1 µM.
Where [4] appears, read: curve of first compound, second compound 3.16 µM.
The mark [5] stands for this setting: curve of first compound, second compound 10 µM.
The mark [6] stands for this setting: second compound 0.1 µM, first compound 0.00949 µM.
The mark [7] stands for this setting: second compound 0.1 µM, first compound 0.03 µM.
[8] abbreviates: second compound 0.1 µM, first compound 0.0949 µM.
Where [9] appears, read: second compound 0.1 µM, first compound 0.3 µM.
The mark [10] stands for this setting: second compound 0.1 µM, first compound 0.949 µM.
The mark [11] stands for this setting: second compound 0.1 µM, first compound 3 µM.
Setting [12] is: second compound 0.316 µM, first compound 0.00949 µM.
[13] abbreviates: second compound 0.316 µM, first compound 0.03 µM.
Setting [14] is: second compound 0.316 µM, first compound 0.0949 µM.
Setting [15] is: second compound 0.316 µM, first compound 0.3 µM.
Setting [16] is: second compound 0.316 µM, first compound 0.949 µM.
[17] abbreviates: second compound 0.316 µM, first compound 3 µM.
Setting [18] is: second compound 1 µM, first compound 0.00949 µM.
The mark [19] stands for this setting: second compound 1 µM, first compound 0.03 µM.
[20] abbreviates: second compound 1 µM, first compound 0.0949 µM.
Where [21] appears, read: second compound 1 µM, first compound 0.3 µM.
[22] abbreviates: second compound 1 µM, first compound 0.949 µM.
Setting [23] is: second compound 1 µM, first compound 3 µM.
[24] abbreviates: second compound 3.16 µM, first compound 0.00949 µM.
Setting [25] is: second compound 3.16 µM, first compound 0.03 µM.
[26] abbreviates: second compound 3.16 µM, first compound 0.0949 µM.
Where [27] appears, read: second compound 3.16 µM, first compound 0.3 µM.
Setting [28] is: second compound 3.16 µM, first compound 0.949 µM.
The mark [29] stands for this setting: second compound 3.16 µM, first compound 3 µM.
Setting [30] is: second compound 10 µM, first compound 0.00949 µM.
[31] abbreviates: second compound 10 µM, first compound 0.03 µM.
Setting [32] is: second compound 10 µM, first compound 0.0949 µM.
Where [33] appears, read: second compound 10 µM, first compound 0.3 µM.
The mark [34] stands for this setting: second compound 10 µM, first compound 0.949 µM.
The mark [35] stands for this setting: second compound 10 µM, first compound 3 µM.

With `CCN(c1cc(-c2ccc(CN3CCOCC3)cc2)cc(C(=O)NCc2c(C)cc(C)[nH]c2=O)c1C)C1CCOCC1` + NC1CC1c1ccc(-c2cccc(O)c2)cc1, the half-maximal inhibitory concentration (IC50) was over 3000 nM under setting [1]; over 3000 nM under setting [2]; over 3000 nM under setting [3]; over 3000 nM under setting [4]; over 3000 nM under setting [5]. Moreover, the viability, T/C is, setting by setting: under setting [6], 98.8%; under setting [7], 112%; under setting [8], 98.9%; under setting [9], 95.1%; under setting [10], 103%; under setting [11], 96.7%. In addition, the viability, T/C is 108% under setting [12]; 106% under setting [13]; 108% under setting [14]; 107% under setting [15]; 101% under setting [16]; 104% under setting [17]. Further, the viability, T/C runs as follows: under setting [18], 100%; under setting [19], 107%; under setting [20], 97.6%; under setting [21], 94.7%; under setting [22], 98.4%; under setting [23], 95.1%. Moreover, the viability, T/C runs as follows: under setting [24], 94%; under setting [25], 92.6%; under setting [26], 89%; under setting [27], 90.1%; under setting [28], 93.8%; under setting [29], 100%. Further, the viability, T/C is, setting by setting: under setting [30], 96.6%; under setting [31], 97.2%; under setting [32], 94.9%; under setting [33], 93.1%; under setting [34], 90.6%; under setting [35], 91%.

Regarding `NC1CCC(NC2CC2c2ccccc2)CC1` (stereo not drawn), the viability, T/C reads like this: (compound 0.1 µM) 86.8% [middle of 25 runs]; (compound 0.316 µM) 85.2% and 90.6%; (compound 1 µM) 86% [middle of 25 runs]; (compound 3.16 µM) 84.7% [middle of 25 runs]; (compound 10 µM) 75.1% [middle of 23 runs]. For the same molecule, for the setting “compound alone, run of 11/29/2021”, the IC50 is over 10000 nM.

Regarding `NS(=O)(=O)OCC1CC(n2ccc3c(NC4CCc5ccccc54)ncnc32)CC1O` (stereo not drawn), the viability, T/C runs as follows: (compound 0.00949 µM) 81% and 90.7%; (compound 0.03 µM) 57.2% and 60.5%; (compound 0.0949 µM) 27.1% and 30.7%; (compound 0.3 µM) 18.4% and 21.2%; (compound 0.949 µM) 12.2% and 15.6%; (compound 3 µM) 9.37% and 11.7%. In addition, the IC50 (curve of compound) was 39.2 nM and 45.3 nM.

With `NS(=O)(=O)OCC1CC(n2ccc3c(NC4CCc5ccccc54)ncnc32)CC1O` (stereo not drawn) + NC1CCC(NC2CC2c2ccccc2)CC1, the IC50 is, setting by setting: under setting [1], 20.8 nM; under setting [2], 20.2 nM; under setting [3], under 9.49 nM; under setting [4], under 9.49 nM; under setting [5], under 9.49 nM. The viability, T/C is 61.1% under setting [6]; 43.3% under setting [7]; 35% under setting [8]; 24% under setting [9]; 19.4% under setting [10]; 15.3% under setting [11]. Further, the viability, T/C under setting [12] was 64.5%; the viability, T/C under setting [13] is 41.2%; the viability, T/C under setting [14] was 30.8%; the viability, T/C under setting [15] is 22.7%; the viability, T/C under setting [16] is 17.8%; the viability, T/C under setting [17] was 15.6%. Further, the viability, T/C was 47.8% under setting [18]; 29.6% under setting [19]; 21.4% under setting [20]; 19.5% under setting [21]; 14.3% under setting [22]; 11.8% under setting [23]. The viability, T/C was 31.8% under setting [24]; 15.6% under setting [25]; 16.6% under setting [26]; 11.5% under setting [27]; 8.41% under setting [28]; 6.43% under setting [29]. Further, the viability, T/C by setting is: under setting [30], 11.8%; under setting [31], 8.27%; under setting [32], 6.84%; under setting [33], 5.05%; under setting [34], 4.15%; under setting [35], 6.13%.

As to `CC[C@@]1(O)C(=O)OCc2c1cc1n(c2=O)Cc2cc3c(CN(C)C)c(O)ccc3nc2-1` + NC1CCC(NC2CC2c2ccccc2)CC1, the IC50 runs as follows: under setting [1], 39.6 nM; under setting [2], 47.3 nM; under setting [3], 38.4 nM; under setting [4], 36.3 nM; under setting [5], 29.3 nM. Besides, the viability, T/C (second compound 0.1 µM, first compound 0.000316 µM) was 82.3%; the viability, T/C (second compound 0.1 µM, first compound 0.001 µM) was 82.9%; the viability, T/C (second compound 0.1 µM, first compound 0.00316 µM) is 71.7%; the viability, T/C (second compound 0.1 µM, first compound 0.01 µM) was 61.2%; the viability, T/C (second compound 0.1 µM, first compound 0.0316 µM) is 57.5%; the viability, T/C (second compound 0.1 µM, first compound 0.1 µM) was 35.7%. Besides, the viability, T/C by setting is: (second compound 0.316 µM, first compound 0.000316 µM) 96.6%; (second compound 0.316 µM, first compound 0.001 µM) 88.2%; (second compound 0.316 µM, first compound 0.00316 µM) 81.8%; (second compound 0.316 µM, first compound 0.01 µM) 68%; (second compound 0.316 µM, first compound 0.0316 µM) 59.1%; (second compound 0.316 µM, first compound 0.1 µM) 37.4%. Besides, the viability, T/C was 85.3% (second compound 1 µM, first compound 0.000316 µM); 82.3% (second compound 1 µM, first compound 0.001 µM); 78.8% (second compound 1 µM, first compound 0.00316 µM); 62.8% (second compound 1 µM, first compound 0.01 µM); 56.6% (second compound 1 µM, first compound 0.0316 µM); 32.2% (second compound 1 µM, first compound 0.1 µM). The viability, T/C by setting is: (second compound 3.16 µM, first compound 0.000316 µM) 78.7%; (second compound 3.16 µM, first compound 0.001 µM) 81.5%; (second compound 3.16 µM, first compound 0.00316 µM) 73.1%; (second compound 3.16 µM, first compound 0.01 µM) 64.8%; (second compound 3.16 µM, first compound 0.0316 µM) 53.7%; (second compound 3.16 µM, first compound 0.1 µM) 30.6%. The viability, T/C was 76.9% (second compound 10 µM, first compound 0.000316 µM); 79% (second compound 10 µM, first compound 0.001 µM); 69.8% (second compound 10 µM, first compound 0.00316 µM); 61.9% (second compound 10 µM, first compound 0.01 µM); 50.1% (second compound 10 µM, first compound 0.0316 µM); 28% (second compound 10 µM, first compound 0.1 µM).
